Results published in patent publication US10899737B2, “Piperazine carbamates and methods of making and using same” (Lundbeck La Jolla Research Center, Inc., priority 2016, dated 2021).

Legend:
[1] = target: T1, MAGL (Homo sapiens, UniProt Q99685); experiment: In vitro competitive activity-based protein profiling (human), MAGL; type: biochemical; details: for inhibition at 1 µM: 1 μM inhibitor, human proteome, 30 min preincubation at 37° C, read-out: MAGL % inh. 1 μM (human); for IC50: human PC3
T1 construct: Proteomes (human prefrontal cortex or cell membrane fractions); from tissue
T1 sequence (Q99685 1-303): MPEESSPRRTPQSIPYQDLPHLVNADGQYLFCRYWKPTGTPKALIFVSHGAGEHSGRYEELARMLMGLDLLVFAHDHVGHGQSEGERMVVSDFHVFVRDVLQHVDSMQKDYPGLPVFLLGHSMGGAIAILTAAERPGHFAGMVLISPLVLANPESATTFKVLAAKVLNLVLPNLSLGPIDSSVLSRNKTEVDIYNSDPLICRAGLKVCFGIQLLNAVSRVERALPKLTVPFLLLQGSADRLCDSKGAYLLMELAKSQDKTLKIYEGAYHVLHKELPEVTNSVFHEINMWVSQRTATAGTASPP
Outline: (§1)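 Human prefrontal cortex or cell membrane proteomes (1.0-2.0 mg/mL protein) preincubated 30 min at 37° C with inhibitor, then labeled 30 min RT with FP-Rh or JW912 probe. After SDS-PAGE, activity taken from fluorescent band intensity for each enzyme.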

[2] = target: T2, MAGL (Mus musculus, UniProt O35678); experiment: In vitro competitive activity-based protein profiling (mouse), MAGL; type: biochemical; details: for inhibition at 1 µM: 1 μM inhibitor, mouse brain membrane fraction or cell lysates, read-out: MAGL % inh. 1 μM (mouse); for IC50: mouse proteome
T2 construct: Proteomes (mouse brain membrane fraction or cell lysates); from tissue; host or cells: mouse brain membrane fraction or cell lysates
T2 sequence (O35678 1-303): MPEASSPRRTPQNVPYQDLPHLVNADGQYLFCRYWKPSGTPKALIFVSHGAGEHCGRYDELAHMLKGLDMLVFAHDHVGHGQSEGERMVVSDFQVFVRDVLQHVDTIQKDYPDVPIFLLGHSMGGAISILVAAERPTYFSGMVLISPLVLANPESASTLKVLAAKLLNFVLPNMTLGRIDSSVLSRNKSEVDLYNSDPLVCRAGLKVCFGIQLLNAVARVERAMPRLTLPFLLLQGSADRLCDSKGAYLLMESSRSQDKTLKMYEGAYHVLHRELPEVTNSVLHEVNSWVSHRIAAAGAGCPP
Outline: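 Mouse brain membrane fraction or cell lysate proteomes (50 μL, 1.0 mg/mL total protein) were preincubated with inhibitors at varying concentrations for 30 min at 37° C. FP-Rh (1.0 μL, 50 μM in DMSO) was then added for a further 30 min at 37° C. Samples were quenched with 4× SDS loading buffer and resolved by SDS-PAGE. MAGL activity was quantified from fluorescent gel band intensity using ImageJ 1.49 k.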

[3] = target: T3, ABHD6 (Mus musculus, UniProt Q8R2Y0); experiment: In vitro competitive activity-based protein profiling (mouse), ABHD6; type: biochemical; details: 1 μM inhibitor, mouse brain membrane fraction or cell lysates; read-out: ABHD6 % inh. 1 μM (mouse)
T3 construct: Proteomes (mouse brain membrane fraction or cell lysates); from tissue; host or cells: mouse brain membrane fraction or cell lysates
T3 sequence (Q8R2Y0 1-336): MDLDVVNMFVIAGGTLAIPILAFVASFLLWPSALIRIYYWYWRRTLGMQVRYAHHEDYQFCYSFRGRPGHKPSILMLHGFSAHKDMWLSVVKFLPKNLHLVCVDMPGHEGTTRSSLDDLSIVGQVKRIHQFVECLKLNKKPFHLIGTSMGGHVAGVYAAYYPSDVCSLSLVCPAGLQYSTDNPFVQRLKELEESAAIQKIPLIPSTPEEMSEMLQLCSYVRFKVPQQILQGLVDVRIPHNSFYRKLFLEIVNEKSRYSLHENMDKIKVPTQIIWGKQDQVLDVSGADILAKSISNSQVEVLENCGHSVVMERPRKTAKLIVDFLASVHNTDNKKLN
Outline: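 Mouse brain membrane proteome or cell lysate (1.0 mg/mL protein) preincubated 30 min at 37 °C with inhibitor, then labelled 30 min at 37 °C with FP-rhodamine probe. Remaining MAGL and ABHD6 activity quantified by in-gel fluorescence band intensity after SDS-PAGE; values are % inhibition at 1 μM.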

[4] = target: T2, MAGL; experiment: Mouse brain proteomes from inhibitor treated mice, MAGL inhibition; type: in vivo; details: 5 mg/kg oral gavage, C57Bl/6J mouse brain, 4 h following administration; read-out: MAGL % inh. 5 mg/kg (mouse)
Protocol: Preparation of Mouse Brain Proteomes from Inhibitor Treated Mice.
Inhibitors were administered to wild-type C57Bl/6J by oral gavage in a vehicle of polyethylene glycol. Each animal was sacrificed 4 h following administration and brain proteomes were prepared and analyzed according to previously established methods (See Niphakis, M. J., et al. (2011) ACS Chem. Neurosci. and Long, J. Z., et al. Nat. Chem. Biol. 5:37-44).

[5] = target: T4, ABHD6 (Homo sapiens, UniProt Q9BV23); experiment: In vitro competitive activity-based protein profiling (human), ABHD6; type: biochemical; details: human PC3
T4 construct: Proteomes (human prefrontal cortex or cell membrane fractions); endogenous in cells; human prefrontal cortex
T4 sequence (Q9BV23 1-337): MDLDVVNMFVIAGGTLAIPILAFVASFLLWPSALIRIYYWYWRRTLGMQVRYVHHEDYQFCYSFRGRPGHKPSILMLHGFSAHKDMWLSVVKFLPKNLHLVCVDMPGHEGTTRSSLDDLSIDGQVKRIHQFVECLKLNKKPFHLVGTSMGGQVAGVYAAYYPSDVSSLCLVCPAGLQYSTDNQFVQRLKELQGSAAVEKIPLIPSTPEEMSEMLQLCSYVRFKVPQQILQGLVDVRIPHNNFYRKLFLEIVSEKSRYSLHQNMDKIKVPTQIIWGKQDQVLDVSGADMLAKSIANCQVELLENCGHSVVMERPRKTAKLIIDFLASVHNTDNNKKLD
Outline: as §1

inhibition at 1 µM [1]	IC50 [1]	inhibition at 1 µM [2]	inhibition at 1 µM [3]	inhibition at 5 mg/kg [4]	IC50 [5]	IC50 [2]	Structure (SMILES)
≥ 75%	≤ 0.1 µM	≥ 75%	0 to 25%	≥ 75%	1 to 10 µM	–	O=C(OC(C(F)(F)F)C(F)(F)F)N1CCN(Cc2ccc(C(F)(F)F)cc2C2(C(=O)O)CCOCC2)CC1 [Example 45, 4-(2-((4-(((1,1,1,3,3,3-hexafluoropropan-2-yl)oxy)carbonyl)piperazin-1-yl)methyl)-5-(trifluoromethyl)phenyl)tetrahydro-2H-pyran-4-carboxylic acid]
≥ 75%	≤ 0.1 µM	≥ 75%	0 to 25%	0 to 25%	1 to 10 µM	–	O=C(O)C1CCN(C(=O)c2cc(CN3CCN(C(=O)OC(C(F)(F)F)C(F)(F)F)CC3)ccc2C(F)(F)F)CC1 [Example 46, 1-(5-((4-(((1,1,1,3,3,3-hexafluoropropan-2-yl)oxy)carbonyl)piperazin-1-yl)methyl)-2-(trifluoromethyl)benzoyl)piperidine-4-carboxylic acid]
≥ 75%	≤ 0.1 µM	≥ 75%	0 to 25%	0 to 25%	1 to 10 µM	–	CC1(NCC(=O)O)CCN(c2cc(C(F)(F)F)ccc2CN2CCN(C(=O)OC(C(F)(F)F)C(F)(F)F)CC2)CC1 [Example 51, (1-(2-((4-(((1,1,1,3,3,3-hexafluoropropan-2-yl)oxy)carbonyl)piperazin-1-yl)methyl)-5-(trifluoromethyl)phenyl)-4-methylpiperidin-4-yl)glycine]
≥ 75%	≤ 0.1 µM	≥ 75%	50 to 75%	≥ 75%	1 to 10 µM	–	CC1(C(=O)O)CCCN(c2cc(C(F)(F)F)ccc2CN2CCN(C(=O)OC(C(F)(F)F)C(F)(F)F)CC2)C1 (centres unmarked) [Example 54, 1-(2-((4-(((1,1,1,3,3,3-hexafluoropropan-2-yl)oxy)carbonyl)piperazin-1-yl)methyl)-5-(trifluoromethyl)phenyl)-3-methylpiperidine-3-carboxylic acid]
≥ 75%	≤ 0.1 µM	≥ 75%	≥ 75%	25 to 50%	0.1 to 1 µM	–	CC1(C(=O)O)CCN(c2cc(C(F)(F)F)ccc2CN2CCN(C(=O)OC(C(F)(F)F)C(F)(F)F)CC2)C1 (centres unmarked) [Example 55, 1-{2-[(4-{[(1,1,1,3,3,3-hexafluoropropan-2-yl)oxy]carbonyl}piperazin-1-yl)methyl]-5-(trifluoromethyl)phenyl}-3-methylpyrrolidin-3-carboxylic acid]
≥ 75%	≤ 0.1 µM	≥ 75%	0 to 25%	0 to 25%	1 to 10 µM	≤ 0.1 µM	CC1(C(=O)O)CN(c2cc(C(F)(F)F)ccc2CN2CCN(C(=O)OC(C(F)(F)F)C(F)(F)F)CC2)CCO1 (centres unmarked) [Example 57, 4-{2-[(4-{[(1,1,1,3,3,3-hexafluoropropan-2-yl)oxy]carbonyl}piperazin-1-yl)methyl]-5-(trifluoromethyl)phenyl}-2-methylmorpholine-2-carboxylic acid]
≥ 75%	≤ 0.1 µM	≥ 75%	≥ 75%	≥ 75%	1 to 10 µM	–	Cc1ccc(CN2CCN(C(=O)OC(C(F)(F)F)C(F)(F)F)CC2)c(N2CCC(C(=O)O)CC2)c1F [Example 59, 1-(2-fluoro-6-((4-(((1,1,1,3,3,3-hexafluoropropan-2-yl)oxy)carbonyl)piperazin-1-yl)methyl)-3-methylphenyl)piperidine-4-carboxylic acid]
≥ 75%	≤ 0.1 µM	≥ 75%	50 to 75%	≥ 75%	1 to 10 µM	–	O=C(O)C1CCN(c2c(CN3CCN(C(=O)OC(C(F)(F)F)C(F)(F)F)CC3)ccc(Cl)c2F)CC1 [Example 62, 1-(3-chloro-2-fluoro-6-((4-(((1,1,1,3,3,3-hexafluoropropan-2-yl)oxy)carbonyl)piperazin-1-yl)methyl)phenyl)piperidine-4-carboxylic acid]
≥ 75%	≤ 0.1 µM	≥ 75%	50 to 75%	≥ 75%	0.1 to 1 µM	–	CC1(C(=O)O)CCN(c2cc(Cl)ccc2CN2CCN(C(=O)OC(C(F)(F)F)C(F)(F)F)CC2)CC1 [Example 63, 1-(5-chloro-2-((4-(((1,1,1,3,3,3-hexafluoropropan-2-yl)oxy)carbonyl)piperazin-1-yl)methyl)phenyl)-4-methylpiperidine-4-carboxylic acid]
≥ 75%	≤ 0.1 µM	≥ 75%	50 to 75%	0 to 25%	1 to 10 µM	–	O=C(O)[C@@H]1CCCN1C1CCN(c2cc(C(F)(F)F)ccc2CN2CCN(C(=O)OC(C(F)(F)F)C(F)(F)F)CC2)CC1 [Example 64, (1-(2-((4-(((1,1,1,3,3,3-hexafluoropropan-2-yl)oxy)carbonyl)piperazin-1-yl)methyl)-5-(trifluoromethyl)phenyl)piperidin-4-yl)proline]
≥ 75%	≤ 0.1 µM	≥ 75%	50 to 75%	≥ 75%	1 to 10 µM	≤ 0.1 µM	O=C(O)C1CCN(c2cc(OC(F)(F)F)ccc2CN2CCN(C(=O)OC(C(F)(F)F)C(F)(F)F)CC2)CC1 [Example 67, 1-(2-((4-(((1,1,1,3,3,3-hexafluoropropan-2-yl)oxy)carbonyl)piperazin-1-yl)methyl)-5-(trifluoromethoxy)phenyl)piperidine-4-carboxylic acid]
≥ 75%	≤ 0.1 µM	≥ 75%	0 to 25%	≥ 75%	1 to 10 µM	–	O=C(O)[C@@H]1CCCN(c2cc(C(F)(F)F)ccc2CN2CCN(C(=O)OC(C(F)(F)F)C(F)(F)F)CC2)C1 [Example 70, (R)-1-(2-((4-(((1,1,1,3,3,3-hexafluoropropan-2-yl)oxy)carbonyl)piperazin-1-yl)methyl)-5-(trifluoromethyl)phenyl)piperidine-3-carboxylic acid]
